Measured values reported in ChEMBL document CHEMBL1201862, “PubChem BioAssay data set” (2004).
Several values for one entry are separate records, joined by “and”; a condition that tells them apart may be missing. Identical values can stand only once.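 Exposure lasted 48 hours, with cells grown in 96-well plates and compounds tested at five concentrations. The concentration for 50% growth inhibition is given as GI50.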 Activity calls are given as the source filed them. Cut-off read from the data, not from the text of the source: active = GI50 up to about 1.1 µM and inactive = higher.

Legend:
Experiment in all cases: DTP human tumour cell line panel, 48 h
CAKI-1 = test system: CAKI-1
EKVX = test system: EKVX
HOP-92 = test system: HOP-92
KM12 = test system: KM12
NCI-H23 = test system: NCI-H23
NCI-H460 = test system: NCI-H460
OVCAR-8 = test system: OVCAR-8
RPMI-8226 = test system: RPMI-8226
SK-MEL-28 = test system: SK-MEL-28
SK-OV-3 = test system: SK-OV-3
SW-620 = test system: SW-620
U-251 = test system: U-251
UACC-257 = test system: UACC-257
UO-31 = test system: UO-31
K562 = test system: K562

Measured: GI50

CC1=NN(C(=O)CC(=O)Nc2cccc(Cl)c2)C(=O)C1/N=N/c1ccc(S(N)(=O)=O)cc1 (configuration not stated)
inactive: CAKI-1 > 100 µM | EKVX > 100 µM | HOP-92 > 100 µM | KM12 > 100 µM | NCI-H23 > 100 µM | NCI-H460 > 100 µM | OVCAR-8 > 100 µM | RPMI-8226 > 100 µM | SK-MEL-28 > 100 µM | SK-OV-3 > 100 µM | SW-620 > 100 µM | U-251 > 100 µM | UACC-257 > 100 µM | UO-31 > 100 µM

C[Si](C)(C)C#C[I+]c1ccccc1
inactive: CAKI-1 42.8 µM | EKVX 52.1 µM | HOP-92 40.5 µM | K562 41.1 µM | KM12 87.3 µM | NCI-H23 36.8 µM | NCI-H460 > 100 µM | OVCAR-8 19.6 µM | SK-MEL-28 39.4 µM | SK-OV-3 > 100 µM | U-251 38 µM | UACC-257 > 100 µM | UO-31 67 µM

O/N=C1/C(=C/c2ccc(Cl)cc2)CCCC1C(NO)c1ccc(Cl)cc1 (configuration not stated)
inactive: CAKI-1 23.7 µM | EKVX 30.1 µM | K562 24.4 µM | KM12 19.9 µM | NCI-H23 20 µM | NCI-H460 17.3 µM | OVCAR-8 21.1 µM | RPMI-8226 20.9 µM | SK-MEL-28 5.6 µM | SK-OV-3 50.8 µM | SW-620 30.2 µM | U-251 20.7 µM | UACC-257 17.2 µM | UO-31 16.6 µM

CCN(CC)CCCn1cnc2ncccc2c1=O
inactive: CAKI-1 > 100 µM | EKVX > 100 µM | HOP-92 > 100 µM | K562 > 100 µM | KM12 > 100 µM | NCI-H23 > 100 µM | NCI-H460 > 100 µM | OVCAR-8 > 100 µM | SK-MEL-28 > 100 µM | SK-OV-3 > 100 µM | SW-620 > 100 µM | U-251 > 100 µM | UO-31 > 100 µM

COc1ccc(OC(C)C(=O)O)c2c1CCCC2=O (configuration not stated)
inactive: EKVX > 100 µM | K562 > 100 µM | KM12 > 100 µM | NCI-H23 > 100 µM | NCI-H460 > 100 µM | OVCAR-8 > 100 µM | RPMI-8226 > 100 µM | SK-MEL-28 > 100 µM | SK-OV-3 > 100 µM | SW-620 > 100 µM | U-251 > 100 µM | UACC-257 > 100 µM | UO-31 > 100 µM

COc1ccc(/C=C/C(=O)c2c(-c3ccccc3)nn(C)c(=O)c2N2CCOCC2)cc1
inactive: CAKI-1 > 100 µM | EKVX > 100 µM | HOP-92 6.92 µM | K562 40.5 µM | NCI-H23 > 100 µM | NCI-H460 > 100 µM | OVCAR-8 > 100 µM | RPMI-8226 38.5 µM | SK-MEL-28 > 100 µM | SK-OV-3 > 100 µM | SW-620 > 100 µM | U-251 > 100 µM | UO-31 > 100 µM

C/C(=N/OCCC(=O)O)C1CC1
inactive: CAKI-1 > 100 µM | EKVX > 100 µM | HOP-92 > 100 µM | K562 > 100 µM | KM12 > 100 µM | NCI-H23 > 100 µM | NCI-H460 > 100 µM | OVCAR-8 > 100 µM | RPMI-8226 > 100 µM | SK-MEL-28 > 100 µM | SK-OV-3 > 100 µM | SW-620 > 100 µM | U-251 > 100 µM | UO-31 > 100 µM

O=C(c1ccccc1)c1nnn(Cc2ccccc2Cn2nnc(C(=O)c3ccccc3)c2C(=O)c2ccccc2)c1C(=O)c1ccccc1
inactive: CAKI-1 > 100 µM | EKVX 47.6 µM | HOP-92 > 100 µM | K562 > 100 µM | KM12 > 100 µM | NCI-H23 > 100 µM | NCI-H460 > 100 µM | OVCAR-8 > 100 µM | RPMI-8226 > 100 µM | SK-MEL-28 > 100 µM | SK-OV-3 > 100 µM | SW-620 > 100 µM | U-251 > 100 µM | UACC-257 > 100 µM | UO-31 > 100 µM

CC(C)=CCSC1CC2C(CC1(C)O)C2(C)C (configuration not stated)
inactive: CAKI-1 14.6 µM and 12.5 µM | EKVX 12.9 µM and 16.1 µM | HOP-92 14.1 µM and 16.6 µM | KM12 19.3 µM and 14.1 µM | NCI-H23 16.1 µM and 12.5 µM | NCI-H460 18.4 µM and 14.2 µM | OVCAR-8 16.6 µM and 14.1 µM | RPMI-8226 17.5 µM and 21.9 µM | SK-MEL-28 16.8 µM and 17 µM | SK-OV-3 15 µM and 16.2 µM | SW-620 19.6 µM and 17.1 µM | U-251 15.2 µM and 14.1 µM

COC1C(OC(=S)Nc2ccccc2)c2ccccc2N1C(C)=O (configuration not stated)
inactive: CAKI-1 85.1 µM | EKVX > 100 µM | HOP-92 13.7 µM | K562 > 100 µM | KM12 29.9 µM | NCI-H23 > 100 µM | NCI-H460 > 100 µM | OVCAR-8 > 100 µM | RPMI-8226 50.4 µM | SK-MEL-28 > 100 µM | SW-620 34 µM | U-251 > 100 µM | UACC-257 > 100 µM | UO-31 98.4 µM

CN(C)/C(=N/C(=S)Nc1ccccc1)SCc1ccccc1
inactive: CAKI-1 24.2 µM | EKVX > 100 µM | K562 12.3 µM | KM12 7.23 µM | NCI-H23 40.9 µM | OVCAR-8 56.4 µM | RPMI-8226 10.3 µM | SK-MEL-28 42.2 µM | SK-OV-3 > 100 µM | SW-620 > 100 µM | U-251 49.2 µM | UACC-257 36.6 µM | UO-31 22.5 µM

Nc1c(-c2ccc(Br)cc2)[n+]([O-])c2ccccc2[n+]1[O-]
inactive: CAKI-1 > 100 µM | EKVX > 100 µM | HOP-92 > 100 µM | K562 64.9 µM | KM12 > 100 µM | NCI-H23 > 100 µM | NCI-H460 > 100 µM | OVCAR-8 > 100 µM | RPMI-8226 27.9 µM | SK-MEL-28 > 100 µM | SK-OV-3 > 100 µM | SW-620 > 100 µM | U-251 78.2 µM | UACC-257 > 100 µM | UO-31 38.6 µM

OCC1C(/C=C/c2ccoc2)ON2CCCC12 (configuration not stated)
inactive: CAKI-1 > 100 µM | EKVX > 100 µM | KM12 > 100 µM | NCI-H23 > 100 µM | NCI-H460 > 100 µM | OVCAR-8 > 100 µM | SK-MEL-28 > 100 µM | SW-620 > 100 µM | U-251 > 100 µM | UACC-257 > 100 µM | UO-31 > 100 µM

Cc1cccc(C)c1NC(=O)C1C(=O)N(c2c(C)cccc2C)C(=O)/C1=N\NC(N)=S (configuration not stated)
inactive: EKVX > 100 µM | HOP-92 > 100 µM | K562 92.9 µM | KM12 > 100 µM | NCI-H23 > 100 µM | NCI-H460 > 100 µM | OVCAR-8 > 100 µM | RPMI-8226 89.5 µM | SK-MEL-28 > 100 µM | SW-620 > 100 µM | U-251 > 100 µM | UACC-257 > 100 µM | UO-31 > 100 µM

CSC1=Nc2ccccc2N=C(c2ccccc2)C1
inactive: CAKI-1 75.2 µM | EKVX 54.8 µM | HOP-92 20.2 µM | K562 34.6 µM | KM12 36 µM | NCI-H23 50.2 µM | NCI-H460 19.1 µM | OVCAR-8 61.7 µM | SK-MEL-28 > 100 µM | SK-OV-3 > 100 µM | SW-620 15.1 µM | U-251 > 100 µM | UACC-257 33.1 µM | UO-31 38 µM

Cc1nc(Nc2ccc(Cl)cc2)sc1C(=O)NNC(=O)C(=O)NN
inactive: CAKI-1 23.3 µM | EKVX 10.4 µM | HOP-92 19.9 µM | K562 25.1 µM | KM12 18.3 µM | NCI-H23 16.6 µM | NCI-H460 19.7 µM | OVCAR-8 32.5 µM | SK-MEL-28 22.8 µM | SK-OV-3 22 µM | SW-620 18 µM | U-251 19.1 µM | UACC-257 25.1 µM | UO-31 16.6 µM

Cc1c(C(=O)/C=C/c2ccc(N(C)C)cc2)c(=O)n(-c2ccccc2)n1C
inactive: CAKI-1 > 100 µM | EKVX > 100 µM | HOP-92 > 100 µM | KM12 > 100 µM | NCI-H23 > 100 µM | NCI-H460 > 100 µM | OVCAR-8 > 100 µM | SK-MEL-28 > 100 µM | SK-OV-3 > 100 µM | SW-620 > 100 µM | U-251 > 100 µM | UACC-257 > 100 µM | UO-31 > 100 µM

c1ccc(-c2nnc(-c3nn(-c4ccccc4)c4nc5ccccc5nc34)o2)cc1
inactive: CAKI-1 > 100 µM | EKVX > 100 µM | K562 31 µM | KM12 > 100 µM | NCI-H23 41.2 µM | NCI-H460 > 10 µM | OVCAR-8 51.9 µM | RPMI-8226 39.1 µM | SK-MEL-28 > 100 µM | SK-OV-3 > 100 µM | SW-620 92.3 µM | U-251 85.1 µM | UACC-257 64.3 µM | UO-31 37.2 µM

COC(C(=O)NCCCCNC(=O)C(OC)c1ccccc1)c1ccccc1 (configuration not stated)
inactive: CAKI-1 > 100 µM | EKVX > 100 µM | HOP-92 > 100 µM | K562 > 100 µM | KM12 > 100 µM | NCI-H23 > 100 µM | NCI-H460 > 100 µM | OVCAR-8 > 100 µM | RPMI-8226 > 100 µM | SK-MEL-28 > 100 µM | SK-OV-3 > 100 µM | SW-620 > 100 µM | U-251 > 100 µM | UACC-257 > 100 µM | UO-31 > 100 µM
